Type in all cases: cell-based, human
Assay [1] has as its system hPSC-derived paraxial mesoderm. Description: Chondrocyte specification in micromass culture with TGFB3 or BMP4 (histology, scatter flow cytometry, qRT-PCR, immunostaining). The following applies: for forward and side scatter of live cells (cell size, granularity): 3 week and 5 week micromasses; for chondrocyte morphology: 5 week old micromasses; for Lubricin protein (immunohistochemistry): 12 week micromass tissue; for tissue histology (toluidine blue), chondrocyte size: 13 week old tissues, GDF5 instead of BMP4; for COL2A1 expression / SOX9 expression: qRT-PCR, by 2 weeks of culture. An excerpt:
FIG. 4. TGFB3 and BMP4 specify chondrocytes and cartilage-like tissues with articular cartilage and growth plate cartilage phenotypes. (A) Micrographs of 5 week old micromasses derived with TGFB3 or BMP4, 20× magnification. (B) Tissue histology (stained with toluidine blue) of 13 week cartilage tissues derived with TGFB3 or BMP4. […] (C) Flow cytometric analysis of forward and side cell scatter parameters of 3 week and 5 week old micromasses. Side scatter indicates cell granularity and forward cell scatter indicates cell size. (D) Comparison of hPSC-derived micromass tissues to fetal primary chondrocyte derived micromass tissues and the developing human fetal femur cartilage. Articular cartilage regions appear to have smaller cells in size compared to growth plate like regions, which contain cells which appear enlarged (hypertrophic). Cartilage tissues in micromass as well as in the fetal femur stain uniformly with the toluidine blue stain (images are pink/purple in color and indicate the presence of cartilage proteins). The BMP4-treated micromass tissues contain a large number of enlarged cells which is similar to the bottom panel of the fetal cartilage which represents a growth plate cartilage. TGFB3 treated micromass cultures contain fewer, if any, enlarged chondrocytes, and appear similar to the upper panel of the fetal cartilage which is the site of articular cartilage. (E) Micrograph using GDF5 instead of BMP4 to generate hypertrophic chondrocytes. (F) Histological analyses of cartilage tissues derived from hiPSCs stained with Toluidine blue after 12 weeks. (G,H) Immunohistochemical staining of hESC-derived cartilage tissues for type II Collagen (G, 8 week tissues), and lubricin (H, 12 week tissues).
FIG. 5. Gene expression analyses of chondrocyte specification in the presence of TGFB3 or BMP4 during stages 3 and 4 of differentiation respectively. General chondrocyte genes Sox9 (A) and collagen 2 (B), hypertrophic genes collagen 10 (C), Runx2 (D), osterix (E) and alkaline phosphatase (F), articular cartilage associated genes lubricin (G) and cartilage intermediate layer protein 2 (CILP2) (H), interzone-related (joint progenitor) genes GDF5 (I), ERG (J) and Wnt9a (K). Expression is copy number relative to TBP (n=3 to 8 biological replicates) and is compared to primary fetal chondrocytes (aged 16 to 19 weeks, n=4), primary healthy adult articular chondrocytes (n=2), and growth plate-like chondrocytes isolated from the iliac crest of an adult (n=1). T15 Mesoderm indicates day 15 hESC-derived paraxial mesoderm (DM+FGF-treated). Error bars indicate s.e.m.
FIG. 8. TGFβ1, TGFβ2, and TGFβ3 generated articular chondrocytes from hPSC-derived paraxial mesoderm. COL2A1, lubricin, and CILP2 gene expression after 12 weeks of micromass culture in the presence of TGF agonists as indicated (10 ng/ml). Values represent copy number mRNA relative to TBP. Error bars indicate s.e.m.
Previous studies have shown that TGFBeta/BMP signaling is required to generate chondrocyte progenitors from paraxial mesoderm. […] Following 10 days of TGFb3 treatment (day 25 total), cultures could be switched to media containing BMP4 or maintained in TGFb3 (stage 4) in order to specify subsets of chondrocytes (articular/non-hypertrophic or growth plate/hypertrophic). To determine the chondrocyte potential of the day 15 mesoderm populations, the cells were plated at high cell density in a 20 microliter volume on tissue culture treated Petri dishes for an hour (micromass) and then the ‘spot’ was submerged/covered with media. In our initial studies, the cells were ‘spotted’ in a media containing 2% fetal bovine serum. However, this short serum exposure can be omitted with no effects on cartilage formation at later stages, making this protocol optionally serum-free. After 2 to 3 days, serum-free media containing TGFb3 is added to the culture to generate chondrocyte progenitors. […]
A general note: Flow cytometry measures light scatter and fluorescence of single cells or particles in a stream.

Assay [2] has as its system hPSC-derived chondrocytes. Put plainly: CD73 flow cytometry of hPSC-derived cartilage tissues. The settings on record: hPSC-derived cartilage tissues after 11 weeks. From the text:
(§1) FIG. 6. CD73 is expressed by articular chondrocytes. Flow cytometric analyses of primary chondrocytes (A) Healthy adult articular chondrocytes and iliac crest GPC-like chondrocytes, (B) Primary fetal chondrocytes, primary (C) or passaged (passage (P)2, D) fetal chondrocytes after 9 to 10 weeks of micromass culture in the presence of TGFB3 or BMP4, and (E) hPSC-derived chondrocytes after 11 weeks derived in the presence of TGFB3 or BMP4. (F) Time course of CD73 and PDGFR-beta cells surface expression on T12 and T15 paraxial mesoderm populations, and micromass cultures treated with TGFB3 after 3 days, 10 days, and 2 weeks. (G) Time course of CD73 expression on TGFB3-treated micromasses after 3 days, 7 days, 10 days, and 2 to 5 weeks.
Primary (P0) and passaged (P2) fetal chondrocytes can also be cultured in micromass with TGFB3 or BMP4, similar to how hPSC-derived cartilage tissues are formed. TGFB3-treated fetal P0-derived or fetal P2-derived cartilage tissues contain over 93% CD73 positive cells, while BMP4 treatment reduces the percentage of CD73+ cells to 70% and 61% respectively (FIG. 6C,D). CD73 expression is also expressed by over 98% of hPSC-derived cartilage tissues derived with TGFB3-treatment (FIG. 6E). The percentage of CD73+ cells is reduced to only about 57% of cells after BMP4-treatment. […]

Assay [3] has as its system fetal chondrocytes. Description: CD73 flow cytometry of fetal chondrocytes in micromass culture. The settings on record: 9 to 10 weeks of micromass culture.
Source text: as §1
Primary (P0) and passaged (P2) fetal chondrocytes can also be cultured in micromass with TGFB3 or BMP4, similar to how hPSC-derived cartilage tissues are formed. TGFB3-treated fetal P0-derived or fetal P2-derived cartilage tissues contain over 93% CD73 positive cells, while BMP4 treatment reduces the percentage of CD73+ cells to 70% and 61% respectively (FIG. 6C,D). CD73 expression is also expressed by over 98% of hPSC-derived cartilage tissues derived with TGFB3-treatment (FIG. 6E). The percentage of CD73+ cells is reduced to only about 57% of cells after BMP4-treatment. Thus, CD73 marks primary healthy adult ACs, a proportion of healthy fetal chondrocytes, fetal chondrocytes or passaged fetal chondrocytes cultured as micromasses in TGFB3, and TGFB3-treated articular chondrocyte-like cells derived from human PSCs.

In assay [4] the test system is hiPSCs. Put plainly: Induction of primitive streak-like mesoderm from hiPSCs, flow cytometry. The settings on record: hIPSCs induced with Activin A 3 ng/ml, BMP4 1 ng/ml, basic FGF 5 ng/ml and CHIR99061 1 micromolar, day 1 to day 3. From the text:
FIG. 1. Serum-free differentiation of paraxial mesoderm, chondrocyte progenitors, and cartilage tissues from human pluripotent stem cells (hPSCs). […] On day 4 (T4), mesoderm populations are monitored by the expression of CD56 and PDGFRa on the cell surface by flow cytometry (B). Day 4 mesoderm cells are specified to a paraxial mesoderm fate in monolayer culture by treatment of Dorsomorphin, a BMP inhibitor, a TGFbeta inhibitor SB431542, and bFGF, from days 4 to 6 and bFGF from days 4 to 15 (stage 2). Day 15 paraxial mesoderm cells can generate chondrocyte progenitors by plating in a high density ‘spot’ termed micromass, or by plating onto collagen coated membrane filters (not shown) in the presence of TGFB3 for approximately 10 days (stage 3). Chondrocyte progenitors can be specified to articular chondrocytes or growth plate-like chondrocytes in a cartilage tissue format during stage 4 of differentiation by extended stimulation with TGFB3 (articular) or […] (growth plate-like) for example for 12 weeks. Tissues have been kept in culture for at least 7 months.

Where [5] appears, read: 8- to 12-week old tissue, versus tissue maintained in TGFb3.
Setting [6] is: passaged (P2) fetal chondrocytes.
Setting [7] is: primary (P0) fetal chondrocytes.

BMP4: Bone Morphogenetic Protein 4: in assay [1], the “forward and side scatter of live cells (cell size, granularity)” value is given as “larger forward scatter (FSC)”; the chondrocyte morphology result is “round with cobblestone-like appearance”; the “Lubricin protein (immunohistochemistry)” value is on record as “not”; the “tissue histology (toluidine blue), chondrocyte size” value is reported as “enlarged hypertrophic chondrocytes”. Further, in assay [1], the COL2A1 expression result is reported as “upregulated” and the SOX9 expression entry is listed as “upregulated”. Moreover, in assay [1] (setting [5]), the COL10A1 expression result is on record as “significantly higher”, the RUNX2 expression entry was “significantly higher”, the SP7 expression result is “significantly higher” and the “alkaline phosphatase (ALP/ALPL) expression” value is “significantly higher”. The “cartilage tissue formation on direct plating of day 15 mesoderm” value in assay [1] (direct plating into BMP4 containing media, no TGFB3 stimulation) is “non-adherent cell aggregates that did not form cartilage tissue”. The CD73 positive cells entry in assay [2] was “about 57%”. In assay [3] (setting [6]), the CD73 positive cells amounted to 61%. The molecule also returned a CD73 positive cells in assay [3] (setting [7]) of 70%.
Regarding `Cc1cnc(-c2cnc(NCCNc3ccc(C#N)cn3)nc2-c2ccc(Cl)cc2Cl)[nH]1` [CHIR99061], in assay [4], the “expression of cell surface markers CD56, PDGFRalpha and KDR” value is “also expresses CD56, PDGFRalpha and KDR”.

B1: TGFB3: TGFbeta agonist (protein, UniProt P10600 301-412, looked up)
Transforming growth factor …: ALDTNYCFRNLEENCCVRPLYIDFRQDLGWKWVHEPKGYYANFCSGPCPYLRSADTTHSTVLGLYNTLNPEASASPCCVPQDLEPLTILYYVGRTPKVEQLSNMVVKSCKCS
For the molecule B1, in assay [1], the “forward and side scatter of live cells (cell size, granularity)” value was “tight population of smaller, less granular cells”; the chondrocyte morphology result is on record as “small fibroblastic-like phenotype”; the “Lubricin protein (immunohistochemistry)” value is given as “present”; the “tissue histology (toluidine blue), chondrocyte size” value is listed as “small cells (chondrocytes) dispersed evenly throughout the tissue”. Further, in assay [1], the COL2A1 expression entry is on record as “upregulated” and the SOX9 expression entry is reported as “upregulated”. Also, in assay [1] (extended period of time (up to 12 weeks)), the “expression of mature AC genes, such as lubricin and CILP2” value is recorded as “allows for the expression of mature AC genes”. Moreover, the CD73 positive cells entry in assay [2] is on record as “over 98%”. For the same molecule, the CD73 positive cells result in assay [3] (setting [6]) is on record as “over 93%”. Further, in assay [3] (setting [7]), the CD73 positive cells result is “over 93%”.

(Values after patent publication US10736923B2, “Methods and compositions for generating chondrocyte lineage cells and/or cartilage like tissue” (UNIVERSITY HEALTH NETWORK, priority 2013, dated 2020).)
